Key:
[1] = test system: BT474-SCTs; experiment: Sensitivity of BT474 single cell-line tumoroids (SCTs) on PNS to lapatinib, PrestoBlue cell viability; assay type: cell-based; conditions: Homo sapiens, BT-474, BT474-SCTs cultured on PNS, lapatinib 72 h
Experimental: (§1) FIGS. 9A-C are a series of images depicting growth of BT474 derived SCTs (A) and MCTs (B) for 6 days on PNS; tumoroids are stained with calcein AM/EthD-1. Confocal (merged z-stacked) images showing presence of ECs (vWF, green cells), CAFs (SMA positive, red cells) and DAPI (cell nuclei) in BT474-MCTs imaged by confocal microscopy (merged z-stacked images). (C) Differential response of BT474-SCTs and -MCTs to lapatinib. On day 2 after co-culture, BT474 cells were treated with increasing concentrations (μM) of lapatinib for 72 h; cell viability was measured by PrestoBlue assay.
The inventors examined sensitivity of BT474-SCTs and -MCTs to lapatinib. […] These include, IL-6, IL-8, vascular endothelial growth factor (VEGF), monocyte chemotactic protein 1 (MCP-1), platelet derived growth factor BB (PDGF-BB), dickkopf-1 (DKK-1, inhibitor of Wnt signaling pathway), osteoprotegerin (OPG, a negative regulator of bone remodeling) and MMP-3, which have been implicated in tumor metastasis, angiogenesis, cancer stem cell amplification or drug resistance. In addition, five tumoroid biomarkers that are found expressed abundantly in MCTs (vs SCTs) and can be considered as predictors of clinical efficacy for lapatinib, included, a) marker for cell proliferation: Ki67, and b) stromal derived factors: IL-6, MCP-1, VEGF and DKK-1 (FIG. 9D).

[2] = test system: BT474-MCTs; experiment: Sensitivity of BT474 multi-cell tumoroids (MCTs, co-culture with ECs and CAFs) on PNS to lapatinib, PrestoBlue cell viability; assay type: cell-based; conditions: Homo sapiens, BT-474, BT474-MCTs in the presence of ECs and CAFs on PNS, lapatinib 72 h
Experimental: as §1
The inventors established conditions to co-culture tumor cells with ECs and CAFs to allow formation of robust MCTs. […] The presence of CAFs and ECs in the MCTs was confirmed by immunohistochemistry using anti-smooth muscle actin (SMA) and antivon Willebrand factor (vWF) antibodies for CAFs and ECs, respectively, followed by confocal microscopy (FIG. 9B). On day 5 after co-culture, CAFs were found dispersed throughout the MCT, whereas ECs were found mostly on the edge of the MCT.
The inventors examined sensitivity of BT474-SCTs and -MCTs to lapatinib. […]

- IC50 [1]: < 2.5 µM
- IC50 [2]: > 10 µM
Structure (SMILES): CS(=O)(=O)CCNCc1ccc(-c2ccc3ncnc(Nc4ccc(OCc5cccc(F)c5)c(Cl)c4)c3c2)o1 [lapatinib]

Reference: patent US11016062B2, “System and method of measuring cell viability and growth” (University of South Florida, priority 2015, dated 2021)
